In one assay the test system is armyworm. Particulars: disclosed in CN1653051A; cited from earlier work.
The test system of another assay is diamondback moth. The assay is described as follows: Test against diamondback moth (leaf disc spraying). The assay is classed as in vivo. Particulars: Plutella xylostella, foliar, 72 h. The text has this:
The test method is spraying. The leaves of cabbage grown in greenhouse were chosen, removed the surface waxy layer and perforated to get 3 cm diameter leaf discs by the hole puncher. The test compounds were sprayed on both sides of the discs by Airbrush according to the designed concentration from low to high dose. The cabbage discs were placed in 6 cm diameter Petri dish with filter paper. Tentest insects (3 instar) were introduced on each treatment after drying. Each treatment set the pure water as CK. The treated discs were placed in a certain condition. After 72 h, the number of surviving insects was investigated and the mortality rates were calculated.

The next assay relates to army worm. Put plainly: Test against army worm (corn leaf spraying). Particulars: 72 h. It is filed as in vivo. The protocol:
The test method is spraying. The middle part of fresh corn leaves were chosen and cut into 3 cm sects. The test compounds were sprayed on both sides of the sects by Airbrush according to the designed concentration from low to high dose. The sects were placed in 6 cm diameter Petri dish with filter paper. Ten test insects (3 instar) were introduced on each treatment after drying. Each treatment set the pure water as CK. The treated sects were placed in a certain condition. After 72 h, the number of surviving insects was investigated and the mortality rates were calculated.

The test system of another assay is diamond back moth. Particulars: disclosed in CN1653051A; cited from earlier work.
The subject of the next assay is green peach aphid. Put plainly: Test against green peach aphid (spraying). To be noted: Myzus persicae, 48 h. The assay is classed as in vivo. The procedure: According to the solubility of test compounds, the compounds are dissolved in acetone or dimethyl sulfoxide, and then diluted with 0.1% aqueous solution of Tween 80 to form the test liquid 50 ml, the content of acetone or dimethyl sulfoxide in the total solution is not more than 10%.
The 6 cm diameter Petri dish with a layer of filter paper was chosen, a moderate amount of water was added to preserve moisture. A suitable piece of cabbage leaf with 30-50 green peach aphids was excised from a culture plant. Remove the winged and positive aphids, the leaf was placed to the Petri dish above with back upward. The test compounds were sprayed on both sides of the leaf by Airbrush (spray pressure: 10 psi, equate to 0.7 kg/cm^2; spray volume: 0.5 mL; spray distance: 15-20 cm). The treated Petri dishes were placed in a chamber of 23-25° C., 40%-60% relative humidity, L/D 13 h: 11 h. To keep the leaf fresh, a moderate amount of water was added to the Petri dish during the observation. After 48 h, the number of surviving insects was investigated and the mortality rates were calculated.

Consider one compound from patent US9723838B2, “Pyrazolyl amide compounds and uses thereof” (SHENYANG SINOCHEM AGROCHEMICALS R&D CO., LTD., priority 2013, dated 2017).

The term mortality denotes the share of the test organisms that died.

Each structure is given as a SMILES string.

Turning to `CC(NC(=O)c1cc(F)cc(Cl)c1NC(=O)c1cc(Br)nn1-c1ncccc1Cl)C(N)=O` (centres unmarked) [KC2, reference compound], in the assay with armyworm, the “insecticidal activity against armyworm” value is given as “high activity”. In addition, in the assay with diamondback moth, the mortality at 0.156 ppm came out at 30%, the mortality at 0.313 ppm was 45.8% and the mortality at 0.63 ppm came out at 63.2%. Further, in the assay on army worm, the mortality at 2.5 ppm worked out at 0%, the mortality at 5 ppm turned out to be 16.7% and the mortality at 10 ppm came to 61.6%. Further, the “insecticidal activity against diamond back moth” value in the assay with diamond back moth was “high activity”. Moreover, in the assay on green peach aphid, the mortality at 2.5 ppm came to 0%, the mortality at 5 ppm worked out at 57.6% and the mortality at 10 ppm worked out at 70.4%.
